For assay [1], the target named is endogenous PIEZO2 currents in MCC13 (Homo sapiens, UniProt Q9H5I5). Briefly: Whole-cell patch-clamp of mechanically stimulated MCC13 cells. To be noted: 300 μM. On the technique in general: In patch-clamp work, channel activity is measured electrically.
Method: (§1) Cell culture and electrophysiology: Piezo1 knock-out mouse N2A (N2A^Piezo1−/−) cells were a gift from Dr. Gary R. Lewin, human Merkel cell carcinoma cell line (MCC13 cells; Cell Bank Australia reference number: CBA1338) were obtained from Sigma, and DRG neurons were obtained from sacrificed mice. N2A^Piezo1−/− cells were cultured in Dulbecco's Modified Eagle Medium (DMEM), 5% penicillin streptomycin and 10% fetal bovine serum (FBS); MCC13 cells were cultured in RPMI 1640 (with 2 mM L-glutamine+25 mM HEPES; Sigma), 5% penicillin-streptomycin and 10% FBS and; DRG neurons were cultured in DMEM, 1% penicillin-streptomycin, 1% MEM vitamin solution, 1% L-glutamine, and 10% horse serum. Prior to electrophysiological measurements, N2A^Piezo1−/−, MCC13 and DRG neurons were supplemented overnight (≈18 h) with MA. […] MA was obtained from Nu-Chek Prep, INC. The cultured cells were maintained at 37° C., 95% relative humidity, and 5% CO2.
(§2) For whole-cell recordings, the bath solution contained 140 mM NaCl, 6 mM KCl, 2 mM CaCl2), 1 mM MgCl2, 10 mM glucose, and 10 mM HEPES (pH 7.4; 300 mOsm). The pipette solution for voltage-clamp recordings contained: 140 mM CsCl, 5 mM EGTA, 1 mM CaCl2), 1 mM MgCl2, and 10 mM HEPES (pH 7.2); and for current clamp recordings: 140 mM KCl, 6 mM NaCl, 2 mM CaCl2), 1 mM MgCl2, 10 mM glucose, and 10 mM HEPES (pH 7.4; 300 mOsm); MA and bradykinin acetate salt (Sigma) perfused during experiments were dissolved in the bath solution to a final concentration of 300 μM for 2 min, and 1 μM for 5 min respectively; and for long exposure experiments bradykinin was supplemented to the culture medium and added to the cells 18-24 h prior recording. For cytoskeleton disruption experiments, N2A^Piezo1−/− were incubated in media supplemented with 1 μM latrunculin A (Cayman Chemicals) for 1 h prior recordings. […]
(§3) During mechanical stimulation, currents were recorded at a constant voltage (−60 mV, voltage-clamp), and voltages were recorded without injecting current (current-clamp). […]
The test system of assay [2] is PIEZO2-PIEZO1 beam chimera. Put plainly: Whole-cell patch-clamp of N2A^Piezo1−/− cells transfected with Piezo2-Piezo1 beam chimera.
Method: as §1, §2, §3
Assay [3] concerns human iPSC-derived neurons. Put plainly: Voltage-activated currents in human iPSC-derived neurons. To be noted: 300 μM vs control. The class given is cell-based. From the text: Human iPSC-derived neurons: For generating human peripheral sensory neuron cultures, a version of the healthy control WTC11 iPSC line was used. This line was previously engineered to harbor a doxycycline-inducible NGN2-BRN3A construct that enables rapid and efficient sensory neuron differentiation. Undifferentiated iPSCs were maintained in E8 flex medium (invitrogen) on polystyrene plates coated with Matrigel® (Corning). The medium was exchanged every 1-3 days, and the cells were passaged every 4-7 days with Accutase® (Invitrogen) and plated overnight with 10 μM of the ROCK-inhibitor Y-27632 (Tocris). For sensory neuron differentiation, iPSCs were seeded at 20,000 cells·(cm2)−1 in neural differentiation medium (NDM) on Matrigel®-coated plates. The cells were then re-plated after 48 hours at 50,000 cells·(cm^2)^−1 onto dishes coated with polyethylenimine (Sigma-Aldrich) and laminin (Invitrogen). NDM consisted of (all from Invitrogen) 1:1 DMEM/F12 and Neurobasal™ medium supplemented with N2, B27, and GlutaMAX™ at manufacturer-recommended dilution. 2 μg·ml^−1 doxycycline (Clontech) was included in the medium for the duration of the culture, 10 μM. Y-27632 was supplemented for the first 48 hours, and the following neurotrophic factors were added from day 8 onward at 10 ng/ml each (all from R&D systems): BDNF, GDNF, β-NGF, and NT-3. […]

Another assay deals with mouse DRG neurons. Briefly: Electrical excitability of mouse DRG neurons (voltage-gated currents, membrane potential, current injection). The class given is cell-based.
Assay [4] concerns mechano-activated currents of DRG neurons. Put plainly: Bradykinin sensitization of mechano-activated currents in mouse DRG neurons. In kind it is cell-based.
In assay [5] the test system is mechano-activated currents of rat DRG neurons. Briefly: Whole-cell patch-clamp of mechano-activated currents in rat DRG neurons. The note with it: 300 μM for 18 h.
In a further assay the test system is mice. Briefly: Von Frey test, repeated injury model (daily hind paw injection). The class given is in vivo, mouse. The method, then: Mice behavior: MA solution: MA was prepared in sterile Dulbecco's phosphate buffered saline, with 70 g/L fatty acid free bovine serum albumin (BSA; Sigma), and MA to a final concentration of 5 mM. The solution was filtered to avoid undissolved materials.
Subjects: For the experiment 8-12 weeks old male and female C57B16/J mice (N=12; control n=6; male=3, female=3) MA (n=6; male=3, female=3) per experiment were used. Mice were housed under a 12 hr light dark cycle and granted access to food and water ad libitum.
Injections were given as follows: Mouse is restrained by their tail, foot, and over shoulders scruff. The compound is delivered using a 3/10 cc insulin syringe into the plantar surface of the back foot of each mouse. The beveled needle is inserted at a 35-40° angle and 20-50 μl of the compound is injected subcutaneously. […]
Mechanical threshold (Von Frey test): Punctate mechanical allodynia was measured using Von Frey monofilaments (Stoelting, Inc.) in varying grams of force (0.008-1 g). Animals were placed in small enclosures over a wire mesh and the plantar of the hind paw was poked with a filament and responses were recorded. Withdrawal responses were recorded when the animal lifted, shook, or licked the paw in response to stimulus presentation. […]

Entries after “also recorded” stand apart in the source; their conditions may differ.

endogenous PIEZO2 currents in MCC13, sequence (Q9H5I5 whole entry): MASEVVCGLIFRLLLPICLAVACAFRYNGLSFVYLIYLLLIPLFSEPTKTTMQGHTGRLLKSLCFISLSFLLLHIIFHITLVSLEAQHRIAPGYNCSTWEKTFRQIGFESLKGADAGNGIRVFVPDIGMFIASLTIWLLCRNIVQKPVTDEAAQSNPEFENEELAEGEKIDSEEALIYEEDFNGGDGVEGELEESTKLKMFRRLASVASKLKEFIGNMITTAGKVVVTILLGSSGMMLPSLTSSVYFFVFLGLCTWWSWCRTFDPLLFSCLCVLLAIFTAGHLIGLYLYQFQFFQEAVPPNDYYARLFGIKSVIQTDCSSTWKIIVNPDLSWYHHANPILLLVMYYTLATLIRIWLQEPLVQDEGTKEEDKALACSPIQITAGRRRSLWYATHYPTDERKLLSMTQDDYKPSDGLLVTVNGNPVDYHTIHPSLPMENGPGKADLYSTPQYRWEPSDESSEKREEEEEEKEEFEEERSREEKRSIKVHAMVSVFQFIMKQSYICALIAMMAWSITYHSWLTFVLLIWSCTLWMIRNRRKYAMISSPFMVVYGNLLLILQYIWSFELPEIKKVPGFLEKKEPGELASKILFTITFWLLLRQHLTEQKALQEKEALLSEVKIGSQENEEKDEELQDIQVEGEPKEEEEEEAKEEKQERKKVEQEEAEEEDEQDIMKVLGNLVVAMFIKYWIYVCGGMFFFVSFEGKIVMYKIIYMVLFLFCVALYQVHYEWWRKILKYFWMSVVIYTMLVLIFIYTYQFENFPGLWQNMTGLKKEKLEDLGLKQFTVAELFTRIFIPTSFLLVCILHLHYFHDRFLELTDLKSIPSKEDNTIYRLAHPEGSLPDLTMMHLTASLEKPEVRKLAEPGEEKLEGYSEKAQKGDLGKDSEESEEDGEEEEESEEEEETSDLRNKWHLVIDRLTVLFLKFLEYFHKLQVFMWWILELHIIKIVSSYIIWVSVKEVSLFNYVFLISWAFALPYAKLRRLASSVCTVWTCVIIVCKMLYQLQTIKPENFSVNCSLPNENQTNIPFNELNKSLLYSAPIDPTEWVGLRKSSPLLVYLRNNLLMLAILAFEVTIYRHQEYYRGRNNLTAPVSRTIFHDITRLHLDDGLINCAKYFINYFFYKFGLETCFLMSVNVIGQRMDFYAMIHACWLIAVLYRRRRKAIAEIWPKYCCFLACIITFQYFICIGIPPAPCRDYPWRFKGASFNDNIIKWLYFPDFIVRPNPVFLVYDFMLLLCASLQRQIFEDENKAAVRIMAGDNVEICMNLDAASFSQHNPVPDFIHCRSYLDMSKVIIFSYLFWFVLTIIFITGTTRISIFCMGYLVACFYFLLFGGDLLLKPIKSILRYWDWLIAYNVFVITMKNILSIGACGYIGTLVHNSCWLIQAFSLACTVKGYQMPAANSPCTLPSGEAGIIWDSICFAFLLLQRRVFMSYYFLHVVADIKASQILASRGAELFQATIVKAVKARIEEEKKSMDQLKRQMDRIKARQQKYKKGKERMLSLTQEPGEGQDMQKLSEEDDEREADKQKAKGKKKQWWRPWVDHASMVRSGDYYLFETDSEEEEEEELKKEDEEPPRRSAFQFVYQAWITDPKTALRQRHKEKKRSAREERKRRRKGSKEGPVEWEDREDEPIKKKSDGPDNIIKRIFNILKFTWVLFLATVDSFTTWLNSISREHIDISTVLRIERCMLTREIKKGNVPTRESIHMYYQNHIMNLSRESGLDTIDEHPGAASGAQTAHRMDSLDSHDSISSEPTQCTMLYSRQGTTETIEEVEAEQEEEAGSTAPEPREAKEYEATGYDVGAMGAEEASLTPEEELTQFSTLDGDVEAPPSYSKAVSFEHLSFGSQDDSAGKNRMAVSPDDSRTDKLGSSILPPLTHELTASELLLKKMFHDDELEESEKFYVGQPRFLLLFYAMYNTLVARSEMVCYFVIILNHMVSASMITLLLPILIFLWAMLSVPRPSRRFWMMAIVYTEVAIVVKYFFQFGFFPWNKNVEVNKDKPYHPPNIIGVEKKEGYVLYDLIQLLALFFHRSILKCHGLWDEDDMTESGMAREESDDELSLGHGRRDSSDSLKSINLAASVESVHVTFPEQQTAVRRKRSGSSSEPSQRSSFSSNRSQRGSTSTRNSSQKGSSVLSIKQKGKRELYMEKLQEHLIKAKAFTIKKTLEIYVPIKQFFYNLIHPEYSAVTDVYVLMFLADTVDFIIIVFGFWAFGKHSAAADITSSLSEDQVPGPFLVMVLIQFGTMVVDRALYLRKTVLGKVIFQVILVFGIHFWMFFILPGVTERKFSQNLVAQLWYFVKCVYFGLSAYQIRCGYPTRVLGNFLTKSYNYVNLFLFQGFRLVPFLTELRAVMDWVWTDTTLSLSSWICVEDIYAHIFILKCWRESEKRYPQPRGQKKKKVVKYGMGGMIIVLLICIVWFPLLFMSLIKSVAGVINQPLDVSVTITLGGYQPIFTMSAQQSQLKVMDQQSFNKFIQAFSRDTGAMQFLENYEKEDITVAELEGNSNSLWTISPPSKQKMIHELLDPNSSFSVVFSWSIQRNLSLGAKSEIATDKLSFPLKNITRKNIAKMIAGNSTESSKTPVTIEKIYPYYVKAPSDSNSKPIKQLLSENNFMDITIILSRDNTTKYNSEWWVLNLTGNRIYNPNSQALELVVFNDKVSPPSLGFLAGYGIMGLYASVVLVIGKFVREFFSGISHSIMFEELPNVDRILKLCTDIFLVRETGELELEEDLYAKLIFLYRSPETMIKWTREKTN

Take `CCCCCCCCCCCCCCCCC(=O)O` [MA, heptadecanoic acid]: in assay [1], the “effect on displacement threshold” value is recorded as “increasing the displacement threshold” and the “effect on mechano-activated (endogenous PIEZO2) currents” value is on record as “decreases mechano-activated currents; also recorded: decreases endogenous PIEZO2 currents”. Also, in assay [2] (100 μM overnight, compared with PIEZO2), the “sensitivity of chimera to MA inhibition” value is “much more sensitive to MA inhibition”. The “mechanical stimulus needed to open chimera” value in assay [2] (MA 100 μM overnight) is “requires a higher mechanical stimulus to open”. In assay [3], the “voltage-activated inward Na+ and outward K+ currents” value is “did not change voltage-activated inward Na+ and outward K+ currents”. The electrical excitability entry in the assay with mouse DRG neurons (300 μM) is reported as “does not alter mouse DRG neurons electrical excitability; also recorded: does not alter DRG neuronal electrical excitability”. In addition, in the assay with mouse DRG neurons (300 μM vs control), the “action potential firing elicited by current injection” value is “no difference in action potential firing elicited by current injection”; the “amplitudes of voltage-activated inward Na+ and outward K+ currents” value is recorded as “no significant differences”. The membrane potential result with mouse DRG neurons (300 μM, whole-cell configuration) is reported as “did not alter membrane potential”. Besides, in assay [4] (MA 300 μM 18 h, bradykinin 1 μM perfusion, 10 μm displacement, mean±SD, control 3.36±1.68), the “current density after bradykinin administration” value is on record as 3.64±1.96 pA/pF. Moreover, the “mechano-currents after sensitization with bradykinin” value in assay [4] (MA 300 μM 18 h, acute bradykinin 1 μM) was “decreases the mechano-currents, even after sensitization with bradykinin”. In addition, the “current densities after combined overnight incubation with bradykinin” value in assay [4] (bradykinin 1 μM and MA 300 μM, 18 h both) is “restored the current densities to those of control neurons”. For the same compound, the “effect on mechano-activated currents” value in assay [5] is reported as “decreases mechano-activated currents in rat DRG neurons; also recorded: inhibit all mechanosensitive currents”. Further, the “hypersensitivity to punctate touch (tactile allodynia)” value in the assay on mice (MA 5 mM injected daily into hind paw for 7 days) was “ameliorates hypersensitivity to touch after injury; also recorded: selectively decreases tactile allodynia; also recorded: protects against tactile allodynia; also recorded: do not develop; also recorded: failed to develop this type of heightened withdrawal response”. The baseline touch responses entry in the assay with mice (acute sub-dermal injection) is recorded as “had no effect on baseline touch responses”.

Values taken from patent publication US12714688B2, “Margaric acid decreases PIEZ02-mediated pain” (The United States of America, as represented by The …, priority 2020, dated 2026).
